What was measured:
[1] = test system: SiHa cells (cervical cancer); assay: MTT antiproliferative assay, SiHa; format: cell-based, human; conditions: 72 h; for inhibition at 10 µM / inhibition at 30 µM: Homo sapiens, read-out: Growth inhibition (%) ± SEM
Procedure: (§1) The in vitro antiproliferative activities of the synthesized aminodiols 4–38 against a panel of different human cancer cell lines of gynecological origin, including cervical (SiHA and HeLa), breast (MCF7 and MDA-MB-231), and ovary (A2780) cancers were assayed by the MTT method. […] Cisplatin, a clinically applied anticancer agent, was used as a reference compound and the results are summarized in Figure 3 and Table S1 in Supporting Information. […] On the other hand, none of the prepared azole derivatives exerted relevant activity.
(§2) The growth-inhibitory effects of the gibberellic acid-based aminodiol derivatives were determined by a standard MTT (3-(4,5-dimethylthiazol-2-yl)-2,5-diphenyltetrazolium bromide) assay on a panel containing five cell lines, including Hela and Siha (cervical cancers); MDA-MB-231 and MCF-7 (breast cancers); and A2780 ovarian cancer cells. The most promising agents were additionally tested against NIH/3T3 mouse embryo fibroblast cells. All cell lines were purchased from the European Collection of Cell Cultures (Salisbury, UK) except SiHa, which was obtained from the American Tissue Culture Collection (Manassas, VA, USA). The cells were maintained in minimal essential medium supplemented with 10% fetal bovine serum, 1% non-essential amino acids, and 1% penicillin-streptomycin at 37 °C in a humidified atmosphere containing 5% CO2. All media and supplements were obtained from Lonza Group Ltd., (Basel, Switzerland). Cancer cells were seeded into 96-well plates (5000 cells/well), after an overnight incubation the test compound was added in 2 different concentrations (10 µM and 30 µM) and incubated for another 72 h under cell-culturing conditions. Then, 20 μL of 5 mg/mL MTT solution was added to each well and incubated for a further 4 h. The medium was removed, and the precipitated formazan crystals were dissolved in DMSO during 60 min of shaking at 37 °C. As the final step, the absorbance was measured at 545 nm by using a microplate reader (SPECTROStar Nano, BMG Labtech, Offenburg, Germany). Untreated cells were included as controls. […] These agents were additionally tested against NIH/3T3 fibroblasts to obtain results about their cancer selectivity. Two independent experiments were performed with five wells for each condition. Cisplatin (Ebewe GmbH, Unterach, Austria), a clinically used anticancer agent, was used as a positive control. Calculations were performed utilizing the GraphPad Prism 5.01 software (GraphPad Software Inc., San Diego, CA, USA).

[2] = test system: MDA-MB-231 cells (breast cancer); assay: MTT antiproliferative assay, MDA-MB-231; format: cell-based, human; conditions: for Growth inhibition (%) ± SEM / inhibition at 10 µM / inhibition at 30 µM: 72 h; for IC50: MDA-MB-231, 72 h; for inhibition at 10 µM / inhibition at 30 µM: Homo sapiens, read-out: Growth inhibition (%) ± SEM
Procedure: as §1, §2

[3] = test system: NIH/3T3 mouse embryo fibroblast cells; assay: MTT assay on non-cancerous fibroblasts (cancer selectivity); format: cell-based; conditions: for Growth inhibition (%) ± SEM: 72 h; for IC50: NIH/3T3, 72 h
Procedure: as §1, §2

[4] = test system: HeLa cells (cervical cancer); assay: MTT antiproliferative assay, HeLa; format: cell-based, human; conditions: 72 h; for inhibition at 10 µM / inhibition at 30 µM: Homo sapiens, read-out: Growth inhibition (%) ± SEM
Procedure: as §1, §2

[5] = test system: A2780 ovarian cancer cells; assay: MTT antiproliferative assay, A2780; format: cell-based, human; conditions: for Growth inhibition (%) ± SEM / inhibition at 10 µM / inhibition at 30 µM: 72 h; for IC50: A2780, 72 h; for inhibition at 10 µM / inhibition at 30 µM: Homo sapiens, read-out: Growth inhibition (%) ± SEM
Procedure: as §1, §2

[6] = DPPH free radical scavenging assay; conditions: concentration range 3–100 µM
Procedure: As a consequence, in vitro antioxidant activities of selected N-aliphatic- and N-aryl-substituted aminodiols were determined by 1,1-diphenyl-2-picrylhydrazyl (DPPH) assay.
The antioxidant effects of the aminodiol derivatives were tested on 1,1-diphenyl-2-picrylhydrazyl (DPPH) radicals according to Brand-Williams (1995) [55] and Sánchez-Moreno (2002) [56], with some modifications. […] After a 30 min incubation period at room temperature (25 °C) the absorbances were measured at 517 nm by a microplate reader (SPECTROStar Nano, BMG Labtech, Offenburg, Germany). Trolox (3,4-Dihydro-6-hydroxy-2,5,7,8-tetramethyl-2H-1-benzopyran-2-carboxylic acid) was used as a positive control. All measurements were performed in duplicate with 5 parallels.

SMILES | melting point [°C] | Growth inhibition (%) ± SEM ([1]; 10 μM) [%] | Growth inhibition (%) ± SEM ([1]; 30 μM) [%] | IC50 [1] [µM] | Growth inhibition (%) ± SEM ([2]; MDA-MB-231, 10 μM) [%] | Growth inhibition (%) ± SEM ([2]; MDA-MB-231, 30 μM) [%] | IC50 [2] [µM] | Growth inhibition (%) ± SEM ([3]; NIH/3T3, 10 μM) [%] | Growth inhibition (%) ± SEM ([3]; NIH/3T3, 30 μM) [%] | IC50 [3] [µM] | Growth inhibition (%) ± SEM ([4]; 10 μM) [%] | DPPH scavenging activity [6] | inhibition at 10 µM ([1]; 10 μM) [%] | inhibition at 30 µM ([1]; 30 μM) [%] | inhibition at 10 µM ([2]; MDA-MB-231, 10 μM) [%] | inhibition at 30 µM ([2]; MDA-MB-231, 30 μM) [%] | inhibition at 10 µM ([4]; 10 μM) [%] | inhibition at 30 µM ([4]; 30 μM) [%] | inhibition at 10 µM ([5]; A2780, 10 μM) [%] | inhibition at 30 µM ([5]; A2780, 30 μM) [%] | other results
N.N.[Cl][Pt][Cl] [Cisplatin, reference compound] |  | 88.64 ± 0.50 | 90.18 ± 1.78 | 7.84 | 67.51 ± 1.01 | 87.75 ± 1.10 | 3.74 | 73.88 ± 1.63 | 97.10 ± 0.15 | 5.49 | 42.61 ± 2.33 |  |  |  |  |  |  |  |  |  | Growth inhibition (%) ± SEM ([4]; 30 μM): 99.93 ± 0.26%; IC50 [4]: 12.4 µM; Growth inhibition (%) ± SEM ([5]; A2780, 10 μM): 83.57 ± 1.21%; Growth inhibition (%) ± SEM ([5]; A2780, 30 μM): 95.02 ± 0.28%; IC50 [5]: 1.3 µM
CCOC(=O)[C@H]1c2c(C)cccc2[C@H]2CC[C@]3(O)C[C@@]21C[C@]3(O)CN[C@@H](C)c1ccc2ccccc2c1 [Compound 12] |  | 97.41 ± 0.15 | 97.06 ± 0.20 | 4.17 ± 0.32 | 95.00 ± 0.69 | 93.72 ± 0.88 | 7.19 ± 1.48 | 90.43 ± 0.15 | 91.03 ± 0.05 | 4.57 ± 0.23 | 97.69 ± 0.28 | None of the six molecules elicited considerable activity |  |  |  |  |  |  |  |  | cancer selectivity (cancer cells vs NIH/3T3 fibroblasts), words ([3]; comparison of IC50 on fibroblasts and malignant cell lines): inhibited the growth of cancer cells and fibroblasts in the same concentration range; Growth inhibition (%) ± SEM ([4]; 30 μM): 97.62 ± 0.55%; IC50 [4]: 4.14 ± 0.38 µM; Growth inhibition (%) ± SEM ([5]; A2780, 10 μM): 96.29 ± 0.59%; Growth inhibition (%) ± SEM ([5]; A2780, 30 μM): 96.28 ± 0.82%; IC50 [5]: 5.45 ± 0.31 µM

The next lines start with results.

melting point [°C] | SMILES | Growth inhibition (%) ± SEM ([1]; 10 μM) [%] | Growth inhibition (%) ± SEM ([1]; 30 μM) [%] | IC50 [1] [µM] | Growth inhibition (%) ± SEM ([2]; MDA-MB-231, 10 μM) [%] | Growth inhibition (%) ± SEM ([2]; MDA-MB-231, 30 μM) [%] | IC50 [2] [µM] | Growth inhibition (%) ± SEM ([3]; NIH/3T3, 10 μM) [%] | Growth inhibition (%) ± SEM ([3]; NIH/3T3, 30 μM) [%] | IC50 [3] [µM] | Growth inhibition (%) ± SEM ([4]; 10 μM) [%] | DPPH scavenging activity [6] | inhibition at 10 µM ([1]; 10 μM) [%] | inhibition at 30 µM ([1]; 30 μM) [%] | inhibition at 10 µM ([2]; MDA-MB-231, 10 μM) [%] | inhibition at 30 µM ([2]; MDA-MB-231, 30 μM) [%] | inhibition at 10 µM ([4]; 10 μM) [%] | inhibition at 30 µM ([4]; 30 μM) [%] | inhibition at 10 µM ([5]; A2780, 10 μM) [%] | inhibition at 30 µM ([5]; A2780, 30 μM) [%] | other results
94 to 95 | CCOC(=O)[C@H]1c2c(C)cccc2[C@H]2CC[C@]3(O)C[C@@]21C[C@]3(O)CN(C)Cc1ccccc1 [Compound 16, Ethyl (4bS,7S,8S,9aR,10R)-8-((benzyl(methyl)amino)methyl)-7,8-dihydroxy-1-methyl-4b,6,7,8,9,10-hexahydro-5H-7,9a-methanobenzo[a]azulene-10-carboxylate] |  |  |  |  |  |  |  |  |  |  | None of the six molecules elicited considerable activity | < 20 | 23 ± 0.39 | < 20 | 25 ± 0.99 | < 20 | 36 ± 2.89 | < 20 | 21.6 ± 0.85 | 
92 to 94 | CCOC(=O)[C@H]1c2c(C)cccc2[C@H]2CC[C@]3(O)C[C@@]21C[C@]3(O)CN [Compound 25, Ethyl (4bS,7S,8S,9aR,10R)-8-(aminomethyl)-7,8-dihydroxy-1-methyl-4b,6,7,8,9,10-hexahydro-5H-7,9a-methanobenzo[a]azulene-10-carboxylate] |  |  |  |  |  |  |  |  |  |  | None of the six molecules elicited considerable activity | < 20 | < 20 | < 20 | < 20 | < 20 | < 20 | < 20 | < 20 | 
221 to 222 | CCOC(=O)[C@H]1c2c(C)cccc2[C@H]2CC[C@]3(O)C[C@@]21C[C@]3(O)Cn1cnc2ccccc21 [Compound 27, Ethyl (4bS,7S,8S,9aR,10R)-8-((1H-benzo[d]imidazol-1-yl)methyl)-7,8-dihydroxy-1-methyl-4b,6,7,8,9,10-hexahydro-5H-7,9a-methanobenzo[a]azulene-10-carboxylate] |  |  |  |  |  |  |  |  |  |  |  | 26.2 ± 0.46 | 44.4 ± 1.84 | < 20 | < 20 | < 20 | 45.5 ± 1.87 | < 20 | 28.9 ± 1.27 | 

From article PMC9499365, “Stereoselective Synthesis and Application of Gibberellic Acid-Derived Aminodiols” (International Journal of Molecular Sciences, 2022)
